Data as given in patent US8969407B2, “Administration of coumarin, butylated hydroxyanisole and ethoxyquine for the treatment of canities” (L'Oreal, priority 2006, dated 2015).

Tested on: normal human melanocytes (NHM)
Test: Measurement of reactive oxygen species (ROS) generated by an H2O2 stress in cultured normal human melanocytes
Type: cell-based
Details: NHM pretreated 12 h/18 h at 37° C. with compound; 250 μM H2O2; fluorescence after 15 minutes; FIG. 1
Experimental: 1-A-1. Protocol for Measuring the Reactive Oxygen Species (ROS) Generated by an H2O2 Stress in Cultured Normal Human Melanocytes (NHM): The normal human melanocytes (NHMs) were inoculated at DO at the density of 4×10^4 cells/cm^2. At D1, the culture medium was replaced with the 10 μM solution of 6-carboxy-2',7'-dichlorodihydrofluorescein diacetate, di[acetoxymethyl ester] in PBS (H2DCFDA, C2938, Molecular Probes). After 20 minutes, the H2DCFDA solution was replaced with the culture medium. The NHMs were left for 30 minutes before adding the H2O2 solution (250 μM). The fluorescence was measured after 15 minutes in a fluoroscan (excitation: 485 nm, emission: 538 nm). The compounds studied were used depending on their properties (concentration, preincubation time). N-Acetylcysteine ([…]-Sigma) was used as a reference molecule. The melanocytes were pretreated, 12 h/18 h at 37° C., with the compound studied in the culture medium, before being brought into contact for 20 minutes with H2DCFDA (10 μM in PBS). […] The fluorescence was measured after 15 minutes in a fluoroscan (excitation: 485 nm, emission: 538 nm). The results represent the crude fluorescence data, from which the autofluorescence values of “blank” cells, expressed in fluorescence units (fu), obtained during a representative experiment, have been deducted.

## CCOc1ccc2c(c1)C(C)=CC(C)(C)N2 [ethoxyquine, 6-ethoxy-2,2,4-trimethyl-1H-quinoline]
  ROS induced by H2O2 (H2DCFDA fluorescence): decrease of the reactive oxygen species
